# Experimental data: patent publication US20070254946A1, “Hair Growth Stimulants” (priority 2003, published 2007)
# Tests used:
# [1] = tested on: hair-matrix cells; assay: Proliferation effect of cultured hair-matrix cells; format: cell-based, Mouse; conditions: cultured 6 days; for Relative value of the number of cells: control group = 100%
# Experimental: Mouse hair tissues were collected and hair-matrix cells were cultured by the method disclosed by Tanigaki, et al., using serum free media (Tanigaki, et al., (1990), Arch. Dermatol. Res. 282: 402-407).
# On the first day after the start of culturing hair-matrix cells, the culture media were changed to those containing the above-mentioned chromene compounds.
# After culturing the hair-matrix cells for 6 days, they were separated from the culture dishes and the number of cells was counted. The effect of each chromene compound is shown by a relative ratio with the number of cells in the control group (the group cultured in a serum-free medium) being defined as 100%.
# [2] = reported in Annual Report of Toyama Prefectural Institute for Pharmaceutical Research, 1998; cited from earlier work
Structure (SMILES),Proliferation rate ([1]; 1 μg/ml in culture medium) [% increase over control],Relative value of the number of cells ([1]; 1 μg/ml in culture medium) [% control],Proliferation rate ([1]; 10 μg/ml in culture medium) [% increase over control],Relative value of the number of cells ([1]; 10 μg/ml in culture medium) [% control],acute toxicity [2]
"COc1cc(C(C)=O)cc2c1OC(C)(C)C=C2 [Acetovanillochromene, 6-acetyl-8-methoxy-2,2-dimethylchromene]",33,133,35,135,–
"COc1c(C(C)O)cc2c(c1OC)OC(C)(C)C=C2 (stereo not shown) [Orthochromene A, 6-(1-hydroxyethyl)-7,8-dimethoxy-2,2-dimethylchromene]",18,118,44,144,–
"COc1c(C(C)=O)cc2c(c1OC)OC(C)(C)C=C2 [Methylripariochromene A, 6-acetyl-7,8-dimethoxy-2,2-dimethylchromene]",12,112,53,153,no toxicity
